Data reported in US10342836B2, “Composition having a function for alleviating premenstrual syndrome and menstrual pain” (AMOREPACIFIC CORPORATION, priority 2013, dated 2019).

System: women of child-bearing ages
Assay: Evaluation of improvement in premenstrual syndrome and menstrual pain by questionnaire before and after about 4 weeks of oral tablets
Type: in vivo, human
Description: The American Psychiatric Association presents the following diagnosis standard for premenstrual syndrome.
According to the standard, women who satisfy at least 5 of the following 11 items and at least one of the first 4 items were selected for test.
(1) Quick change in emotion; sudden sadness, anger or rage
(2) Persistent severe anger and uneasiness
(3) Uneasiness and tension
(4) Depression and hopelessness
(5) Disinterest in daily lives
(6) Fatigue or low energy
(10) Difficulty in emotion control
(11) Breast tenderness, headache, edema, muscle or joint pain and weight gain
For the test, 350 mg tablets containing 100 wt % of the ginseng fruit extract of
A table top tablet making machine (Erweka, Germany) was used.
40 women were selected from 48 women of child-bearing ages (in their 20s to 50s) according to the diagnosis standard. They were divided into 4 groups: i.e., unadministered group, red ginseng group, ginsenoside Re group, and ginseng fruit group. Each group was composed of 10 subjects.
The red ginseng group was asked to take the red ginseng-containing tablets for 4 weeks, twice a day, two tablets once. That is to say, 1400 mg/day of red ginseng extract was administered to them.
The ginsenoside Re group was asked to take tablets containing ginsenoside Re as an active ingredient twice a day, two tablets once. […] The content of ginsenoside Re was determined based on the analysis result shown in FIG. 1 for comparison of the effect of improving premenstrual syndrome and menstrual pain of ginseng fruit extract and only ginsenoside Re contained therein.
The ginseng fruit group was asked to take the ginseng fruit extract-containing tablets for 4 weeks, twice a day, two tablets once. That is to say, 1400 mg/day of ginseng fruit extract was administered to them.
The 40 women were asked to answer questionnaires first after menstruation and, after the administration of nothing, the red ginseng extract or the ginseng fruit extract, to answer questionnaires after the next menstruation was over (about 4 weeks later). The improvement in the symptoms of premenstrual syndrome was evaluated by monitoring the change in total scores based on the questionnaires. One point was given for each item.

[1] = group total, n = 10 women, about 4 weeks, 1400 mg/day extract or 240 mg/day ginsenoside Re
[2] = n = 10 per group, about 4 weeks, 1400 mg/day extract or 240 mg/day ginsenoside Re

CC(C)=CCC[C@](C)(O[C@@H]1O[C@H](CO)[C@@H](O)[C@H](O)[C@H]1O)[C@H]1CC[C@]2(C)[C@@H]1[C@H](O)C[C@@H]1[C@@]3(C)CC[C@H](O)C(C)(C)[C@@H]3[C@@H](O[C@@H]3O[C@H](CO)[C@@H](O)[C@H](O)[C@H]3O[C@@H]3O[C@@H](C)[C@H](O)[C@@H](O)[C@H]3O)C[C@]12C [Ginsenoside Re, ginsenoside Re]
Total score, difference (before minus after administration) [1]: 9 | Total score, difference in percent of the score before administration [1]: 12% | Total score (premenstrual syndrome questionnaire), after administration (group total, n = 10 women, after next menstruation (about 4 weeks), tablets twice a day, two tablets once: 1400 mg/day extract or 240 mg/day ginsenoside Re): 66 | Total score (premenstrual syndrome questionnaire), before administration (group total, n = 10 women, one point per item (11 items), questionnaire after menstruation, before administration): 75 | Number of women who felt the symptoms, difference (before minus after) [2]: 2 | Number of women who felt the symptoms, difference in percent [2]: 20% | Number of women who felt the symptoms of premenstrual syndrome, after administration (n = 10 per group, after about 4 weeks, 1400 mg/day extract or 240 mg/day ginsenoside Re): 8 | Number of women who felt the symptoms of premenstrual syndrome, before administration (n = 10 per group, before administration): 10
